Test system: VEGF expression in CT-26 colon adenocarcinoma cells
Assay: VEGF silencing in vitro, mouse VEGF ELISA of cell supernatants
Type: cell-based
Conditions: bPEI carrier; N/P ratio of 10; CT-26 cells; 0.7 μg siRNA/well
Description: To evaluate the biological significance of these systems, the inhibitory activity of siRNA against the expression of VEGF in CT-26 colon adenocarcinoma cells was investigated.
CT-26 cells were seeded in 24-well tissue culture plates at 8×10^4 cells per well in 10% FBS containing RPMI 1640 medium. Cells achieved 80% confluency within 24 h, after which they were transfected with cationic substance/siRNA complexes prepared at N/P ratios ranging from 5 to 40. The total amount of siRNA loaded was maintained constant at 0.7 μg/well. The transfection was carried out in the absence of serum. The cells were allowed to incubate at 37° C. in the presence of complexes for 4 h in a CO2 incubator, followed by replacement of 1 ml of RPMI 1640 containing 10% FBS. Thereafter, the cells were incubated at 37° C. for an additional 24 h. […]
The amount of mouse VEGF produced in medium was determined using a mouse VEGF ELISA kit (R&D Systems Inc., Minneapolis, Minn.) according to the recommendation of the manufacturer. […] The enzymatic reaction was stopped by adding 100 μl of stop solution to the wells, and absorbance was determined by spectrophotometry at 450 nm. The VEGF concentration in the cell supernatant samples was calculated based on the standard curve.
The inhibitory effect was evaluated from the relative silencing of the VEGF assayed by ELISA.

scVEGF: scrambled VEGF siRNA, SEQ ID NO:3 and SEQ ID NO:4; in b74 tested as complex with bPEI (chain 1 GAUAGCAAUGACGAAUGCGUATT; chain 2 UACGCAUUCGUCAUUGCUAUCTT; chemistry not given here)
silencing of VEGF expression (ELISA): no effect
